≈ marks a conversion by molar mass, not a printed value. Blank lines part the entries; values can stand above or below the compound they belong to.
How the values were obtained:
Assay in all cases: ≥ marks a high value that may be exact or a test limit, other limits are often not marked, values filed in µg/mL are converted to µM
Candida krusei = system: Candida krusei
Candida krusei ATCC 6258 = system: Candida krusei ATCC 6258
[1] = system: Batrachochytrium dendrobatidis JEL-197
[2] = system: Klebsiella pneumoniae KK3 9904
[3] = system: Staphylococcus epidermidis RP62A
[4] = system: Pseudomonas aeruginosa ATCC 27853
[5] = system: Candida parapsilosis ATCC 22019
Candida albicans = system: Candida albicans
[6] = system: Candida albicans ATCC 90028
[7] = system: Enterococcus faecalis ATCC 29212
[8] = system: Enterobacter cloacae HNTCC 53001
[9] = system: Proteus mirabilis ATCC 25933
[10] = system: Staphylococcus aureus NCTC 8325
Candida tropicalis = system: Candida tropicalis
Candida parapsilosis = system: Candida parapsilosis
[11] = system: Escherichia coli ATCC 25922
[12] = system: Bordetella bronchiseptica CUN 11844-99
[13] = system: Staphylococcus aureus ATCC 43300
[14] = system: Acinetobacter baumannii ATCC 19606
[15] = system: Staphylococcus aureus CUN 3792-99
[16] = system: Pseudomonas aeruginosa CUN 4158-02
[17] = system: Staphylococcus aureus ATCC 25923
[18] = system: Stenotrophomonas maltophilia CUN 3998-00
[19] = system: Listeria fleischmannii DSM 24998
[20] = system: Staphylococcus aureus P1381
Listeria grayi DSM 20601 = system: Listeria grayi DSM 20601
[21] = system: Staphylococcus aureus P1383
[22] = system: Bacillus thuringiensis AB92037
Escherichia coli AB94012 = system: Escherichia coli AB94012
[23] = system: Bacillus subtilis AB91021
[24] = system: Micrococcus luteus DSM 20030
Escherichia coli D31 = system: Escherichia coli D31
[25] = system: Pseudomonas aeruginosa AB93066
[26] = system: Staphylococcus aureus DSM 2569
[27] = system: Staphylococcus epidermidis P1389
[28] = system: Micrococcus luteus AB93113
[29] = system: Staphylococcus aureus P1369
[30] = system: Staphylococcus aureus AB94004
[31] = system: Staphylococcus aureus P1386
[32] = system: Staphylococcus epidermidis P1111
[33] = system: Staphylococcus aureus P1374
[34] = system: Listeria monocytogenes DSM 20600
[35] = system: Pseudomonas aeruginosa ATCC 15442
[36] = system: Bacillus cereus ATCC 11778
[37] = system: Staphylococcus aureus CCT 2580
[38] = system: Escherichia coli ATCC 43827
[39] = system: Escherichia coli CCT 1457
[40] = system: Cronobacter sakazakii ATCC 29544
[41] = system: Staphylococcus aureus ATCC 29213
[42] = system: Candida glabrata ATCC 2001
[43] = system: Klebsiella pneumoniae ATCC 700603
[44] = system: Candida tropicalis ATCC 750
[45] = system: Staphylococcus epidermidis ATCC 12228
[46] = system: Candida albicans ATCC 14053

MIC (Candida krusei): 10 µM (≈ 26.1 µg/mL) | MIC (Candida krusei ATCC 6258): 5 µM (≈ 13 µg/mL) | MIC [1]: 12.5 µM (≈ 32.6 µg/mL) | MIC [2]: ≥ 40 µM | MIC [3]: 5 µM (≈ 13 µg/mL) | MIC [4]: 10 µM (≈ 26.1 µg/mL) | MIC [5]: 5 µM (≈ 13 µg/mL) | MIC (Candida albicans): 5 µM (≈ 13 µg/mL) | MIC [6]: 3 µM (≈ 7.82 µg/mL) | MIC [7]: 5 µM (≈ 13 µg/mL) | MIC [8]: 10 µM (≈ 26.1 µg/mL) | MIC [9]: ≥ 40 µM | MIC [10]: 2 µM (≈ 5.21 µg/mL) | MIC (Candida tropicalis): 5 µM (≈ 13 µg/mL) | MIC (Candida parapsilosis): 10 µM (≈ 26.1 µg/mL) | MIC [11]: 17 µM (≈ 44.3 µg/mL)
SMILES: CC[C@H](C)[C@H](NC(=O)[C@@H]1CCCN1C(=O)[C@H](CC(C)C)NC(=O)[C@@H](N)Cc1ccccc1)C(=O)N[C@@H](CC(C)C)C(=O)N[C@@H](C)C(=O)N[C@@H](CO)C(=O)N[C@@H](CC(C)C)C(=O)N[C@@H](C)C(=O)N[C@@H](C)C(=O)N[C@@H](CCCCN)C(=O)N[C@@H](Cc1ccccc1)C(=O)NCC(=O)N1CCC[C@H]1C(=O)N[C@@H](CCCCN)C(=O)N[C@@H](CC(C)C)C(=O)N[C@@H](Cc1ccccc1)C(=O)N[C@H]1CSSC[C@@H](C(=O)O)NC(=O)[C@H](CCCCN)NC(=O)[C@H](CCCCN)NC(=O)[C@H]([C@@H](C)O)NC(=O)[C@H](C(C)C)NC(=O)[C@H](CC(C)C)NC1=O [FLPILASLAAKFGPKLFCLVTKKC]

MIC [12]: 10.2 µM (≈ 32 µg/mL) | MIC [13]: 10.2 µM (≈ 32 µg/mL) | MIC [14]: 20.3 µM (≈ 64 µg/mL) | MIC [4]: 40.7 µM (≈ 128 µg/mL) | MIC [15]: 20.3 µM (≈ 64 µg/mL) | MIC [16]: ≥ 40.7 µM | MIC [17]: 20.3 µM (≈ 64 µg/mL) | MIC [18]: 20.3 µM (≈ 64 µg/mL) | MIC [11]: 20.3 µM (≈ 64 µg/mL)
SMILES: NCCCC[C@H](NC(=O)[C@H](Cc1ccccc1)NC(=O)[C@H](CCCN=C(N)N)NC(=O)[C@H](CCCN=C(N)N)NC(=O)[C@H](CS)NC(=O)CN)C(=O)N[C@@H](CCCCN)C(=O)N[C@@H](Cc1ccccc1)C(=O)N[C@@H](CCCCN)C(=O)N[C@@H](CCCCN)C(=O)N[C@@H](Cc1c[nH]c2ccccc12)C(=O)N[C@@H](CCCN=C(N)N)C(=O)N[C@@H](Cc1ccc(O)cc1)C(=O)N[C@@H](CCCN=C(N)N)C(=O)NCC(=O)N[C@@H](CCCN=C(N)N)C(=O)N[C@@H](Cc1ccccc1)C(=O)N[C@@H](Cc1c[nH]c2ccccc12)C(=O)N[C@@H](Cc1ccccc1)C(=O)N[C@@H](Cc1c[nH]c2ccccc12)C(=O)N[C@@H](CS)C(=O)N[C@@H](Cc1ccccc1)C(=O)NCC(N)=O [GCRRFKKFKKWRYRGRFWFWCFG]

MIC [19]: 4 µM (≈ 6.31 µg/mL) | MIC [20]: 15.8 µM (≈ 25 µg/mL) | MIC (Listeria grayi DSM 20601): 4 µM (≈ 6.31 µg/mL) | MIC [21]: 7.92 µM (≈ 12.5 µg/mL) | MIC [22]: 31.7 µM (≈ 50 µg/mL) | MIC (Escherichia coli AB94012): 31.7 µM (≈ 50 µg/mL) | MIC [23]: 15.8 µM (≈ 25 µg/mL) | MIC [24]: 2 µM (≈ 3.15 µg/mL) | MIC (Escherichia coli D31): 15 µM (≈ 23.7 µg/mL) | MIC [25]: ≥ 63.4 µM | MIC [26]: 15 µM (≈ 23.7 µg/mL) | MIC [27]: 7.92 µM (≈ 12.5 µg/mL) | MIC [28]: 15.8 µM (≈ 25 µg/mL) | MIC [29]: 3.96 µM (≈ 6.25 µg/mL) | MIC [30]: 3.96 µM (≈ 6.25 µg/mL) | MIC [31]: 7.92 µM (≈ 12.5 µg/mL) | MIC [32]: 3.96 µM (≈ 6.25 µg/mL) | MIC [33]: 3.96 µM (≈ 6.25 µg/mL) | MIC [34]: 8 µM (≈ 12.6 µg/mL)
SMILES: CC[C@H](C)[C@H](NC(=O)[C@H](C)NC(=O)[C@H](CO)NC(=O)[C@H](CCCCN)NC(=O)[C@@H](NC(=O)CNC(=O)[C@H](CCC(=O)O)NC(=O)[C@H](Cc1c[nH]c2ccccc12)NC(=O)[C@H](CC(C)C)NC(=O)[C@H](CCCCN)NC(=O)CNC(=O)[C@H](Cc1c[nH]c2ccccc12)NC(=O)[C@H](Cc1ccccc1)NC(=O)CN)C(C)C)C(N)=O [GFWGKLWEGVKSAI]

MIC [35]: ≥ 38.4 µM | MIC [36]: 4.96 µM (≈ 8 µg/mL) | MIC [37]: 2.48 µM (≈ 4 µg/mL) | MIC [38]: 8 µM (≈ 12.9 µg/mL) | MIC [39]: 4.96 µM (≈ 8 µg/mL) | MIC (Candida krusei ATCC 6258): 8 µM (≈ 12.9 µg/mL) | MIC [4]: 8 µM (≈ 12.9 µg/mL) | MIC [40]: 16 µM (≈ 25.8 µg/mL) | MIC [41]: 4 µM (≈ 6.45 µg/mL) | MIC [5]: 16 µM (≈ 25.8 µg/mL) | MIC [42]: 8 µM (≈ 12.9 µg/mL) | MIC [43]: 4 µM (≈ 6.45 µg/mL) | MIC [44]: 2 µM (≈ 3.23 µg/mL) | MIC [45]: 4 µM (≈ 6.45 µg/mL) | MIC [11]: 8 µM (≈ 12.9 µg/mL) | MIC [46]: 16 µM (≈ 25.8 µg/mL)
SMILES: CC[C@H](C)[C@H](N)C(=O)N[C@@H](CC(N)=O)C(=O)N[C@@H](Cc1c[nH]c2ccccc12)C(=O)N[C@@H](CC(C)C)C(=O)N[C@@H](CCCCN)C(=O)N[C@@H](CC(C)C)C(=O)NCC(=O)N[C@@H](CCCCN)C(=O)N[C@@H](CCSC)C(=O)N[C@H](C(=O)N[C@H](C(=O)N[C@@H](CC(=O)O)C(=O)N[C@@H](C)C(=O)N[C@@H](CC(C)C)C(N)=O)[C@@H](C)CC)C(C)C [INWLKLGKMVIDAL]
